# Data from US20190030046A1, “USE OF PURE COMPOUNDS EXTRACTED FROM ANTRODIA CAMPHORATA” (priority 2016, published 2019).
# How the values were obtained:
# 11β-HSD1 = experiment: Semiquantitative RT-PCR in liver tissue: 11β-HSD1; format: in vivo, C57BL/6J mice; settings: vs HF, 4 weeks
# Experimental: (§1) The difference indicates the daily food intake.
# (§2) Total RNA from liver tissue was isolated with a Trizol Reagent (Molecular Research Center, Inc., Cincinnati, Ohio, USA) according to the manufacturer's instructions. The integrity of the extracted total RNA was examined by 2% agarose gel electrophoresis, and the RNA concentration was determined by […] ultraviolet (UV) light absorbency at 260 nm and 280 nm (Spectrophotometer U-2800A, Hitachi). The total RNA (1 μg) was reverse transcribed to cDNA, and 5 μL Moloney murine leukemia virus reverse transcriptase (TEpicentre, Madison, Wis., USA). The PCR was performed in a final 25 μL containing 1 U Blend Taq-Plus (TOYOBO, Japan), 10 μL of the RT cDNA product, 10 μM of each forward (F) and reverse (R) primer, 75 mM Tris-HCL (pH 8.3) containing 1 mg/L Tween 20 (pH 8.3, also known as polyoxyethylene sorbitan monolaurate), 2.5 mM dNTP (deoxy-ribonucleoside triphosphate), and 2 mM MgCl2 (magnesium chloride). The PCR products were analyzed by 2% agarose gel and stained with ethidium bromide.
# phospho-AMPK(Thr172) = experiment: Western blot of phospho-AMPK(Thr172)/total-AMPK in skeletal muscle and liver of HFD mice; settings: compared to HF, 4 weeks
# Experimental: (§3) The HFD mice were subdivided into 6 groups (9 per group) followed by 8-week induction. […] Following four-week treatment and feeding, the food was removed, and the mice were fasted for 12 h and then sacrificed. Tissue samples required were collected from the mice and weighted. Some of the tissue samples were immediately stored at −80° C. and frozen for subsequent target gene analysis. Plasma samples were collected via centrifugation of whole blood at 1600×g for 15 min at 4° C., followed by plasma separation within 30 min.
# (§4) We determined PPARα and FAS protein expression levels in liver tissue, PPARγ and FAS protein expression levels in adipose tissue, and membrane GLUT4 expression in skeletal muscle adipose. The total membrane fraction was collected with the buffer and determined as previously described. The membrane GLUT4, p-AMPK, and total AMPK protein content were determined by Western Blotting as previously described.
# PPARγ = experiment: Western blot of PPARγ protein in liver and adipose tissue of HFD mice; settings: compared to HF, 4 weeks
# SREBP-1c = experiment: Semiquantitative RT-PCR in liver tissue: SREBP-1c; format: in vivo, C57BL/6J mice; settings: vs HF, 4 weeks
# Experimental: as §1, §2
# [1] = HFD-induced diabetic mice: histopathology (H-E) of epididymal white adipose and liver tissue; format: in vivo, C57BL/6J mice; settings: for Adipocyte area: epididymal white adipose, 4 weeks
# Experimental: as §1
# Examination was performed for parts of EWAT (epididymal white adipose) and liver tissue specimens collected. The specimens above were soaked in formalin and neutral buffered solution and embedded in paraffin. Parts therein (8 μm) were cut and stained with hematoxylin and eosin. Images were photographed by a microscope (Olympus BX51, Olympus, Tokyo, Japan). Please refer to FIGS. 3(A) and 3(B).
# CPT-1a = experiment: Semiquantitative RT-PCR in liver tissue: CPT-1a; format: in vivo, C57BL/6J mice; settings: vs HF, 4 weeks
# Experimental: as §1, §2
# SREBP-2 = experiment: Semiquantitative RT-PCR in liver tissue: SREBP-2; format: in vivo, C57BL/6J mice; settings: vs HF, 4 weeks
# Experimental: as §1, §2
# [2] = HFD-induced diabetic mice: fasting blood glucose and biochemical indexes; settings: 4 weeks; for Blood glucose: 12 h fasted HFD mice; for Plasma FFA / Insulin / Leptin / TC / TG: HFD mice; for Insulin / Leptin: blood; for TC / TG: plasma
# Experimental: The control group and HFD group contained 10% and 45% fat intake, respectively. The HFD mice were subdivided into 6 groups (9 per group) followed by 8-week induction. […] During the experiment, all mice were fasted overnight, and blood samples were collected from the retro-orbital sinus. Following four-week treatment and feeding, the food was removed, and the mice were fasted for 12 h and then sacrificed. Tissue samples required were collected from the mice and weighted. Some of the tissue samples were immediately stored at −80° C. and frozen for subsequent target gene analysis. Plasma samples were collected via centrifugation of whole blood at 1600×g for 15 min at 4° C., followed by plasma separation within 30 min. Some plasma samples obtained were used for TG and TC analysis. The metabolic parameters, including body weight, weight gain, and food intake, were performed as follows. Body weight was daily measured throughout the study. Body weight gain is considered as the difference between one day and the next day. The total weight of food intake was daily measured, followed by weighing the amount of remaining feed after 24 h. The difference indicates the daily food intake.
# One part of the forgoing blood samples collected from the retro-orbital sinus of 12 h fasted mice was immediately used for analysis of glucose levels. The other part was used for analysis of blood TG, TC, free fatty acids, blood insulin, leptin, and adiponectin levels. Blood glucose levels were determined by a glucose analyzer (Model 1500 sidekick glucose analyzer, YSI). Plasma triglycerides (TG), total cholesterol (TC), and free fatty acids (FFA) were determined using commercial kits in accordance with manufacturer's instructions (Triglycerides-E test, Cholesterol-E test, and FFA-C test; Wako Pure Chemical, Osaka, Japan). Insulin and leptin levels were measured by enzyme-linked immunosorbent assay (ELISA) (mouse insulin ELISA kit, Mercodia, Uppsala, Sweden; mouse leptin ELISA kit, Morinaga, Yokohama, Japan).
# membrane GLUT4 = experiment: Western blot of skeletal muscle membrane GLUT4 in HFD mice; settings: compared to HF, 4 weeks
# Experimental: as §3, §4
# [3] = system: phospho-Akt(Ser473)/total-Akt(Ser473); experiment: phospho-Akt(Ser473)/total-Akt in C2C12 myotube cells (Western blot); format: cell-based; settings: TT 10 and 25 μg/mL, 25 min
# Experimental: In the present invention, C2C12 skeletal myoblasts (ATCC, CRL-1772) were maintained in growth media consisting of Dulbecco's modified Eagle's medium (DMEM) (Gibco BRL) and supplemented with 10% Fetal Bovine Serum (FBS) (Hyclone) and 100 U/mL penicillin/100 μg/mL streptomycin (Gibco BRL), and split 1:4 using 0.05% trypsin when 80% confluent. Myoblasts were diluted and placed in a 9 cm-diameter dish. Cells were cultured to achieve 80%-90% confluency and then the growth media was changed as 2% FBS/DMEM every 24 h for 5-7 days.
# In experiments for determining GLUT4 and p-Akt(Ser473)/t-Akt proteins in tubes, differentiated C2C12 cells were serum-starved in DMEM/BSA for 2 h at 37° C. prior to incubation with MeOH crude extract (at 20, 100, 200, and 500 μg/mL), test compounds (at 1, 5, 10, and 25 μg/mL), or vehicle for 25 min, or 100 nM insulin for 25 min.
# The cultures obtained by cell culture above were centrifuged, and the resulting pellet was resuspended in a homogenization buffer. The forgoing steps were performed with a filtration membrane. Protein concentrations were measured using a BCA assay (Pierce). Equal amounts of protein were diluted four times in SDS sample buffer, and subjected to SDS PAGE and Western blotting with antibodies specific for Akt, p-Akt Ser^473, and GLUT4. Density blotting analysis was performed using Alpha Easy FC software.
# PPARα = experiment: Western blot of PPARα protein in liver of HFD mice; settings: compared to HF, 4 weeks
# [4] = HFD-induced diabetic mice: liver lipids; format: in vivo, C57BL/6J mice; settings: 4 weeks
compound,measurement,setting,value
"C=C(CC[C@@H](C(=O)O)[C@H]1CC[C@@]2(C)C3=CC[C@H]4C(C)(C)[C@@H](O)CC[C@]4(C)C3=CC[C@]12C)C(C)C [TT, dehydroeburicoic acid]",11β-HSD1 mRNA expression level in liver,"11β-HSD1; HF+TT1, 10 mg/kg/day oral",decreased
same,11β-HSD1 mRNA expression level in liver,"11β-HSD1; HF+TT2, 20 mg/kg/day oral",decreased
same,11β-HSD1 mRNA expression level in liver,"11β-HSD1; HF+TT3, 40 mg/kg/day oral",decreased
same,expression level of p-AMPK/t-AMPK proteins in liver,"phospho-AMPK(Thr172); HF+TT1, 10 mg/kg/day oral",significantly increased
same,expression level of phospho-AMPK/total-AMPK in skeletal muscle,"phospho-AMPK(Thr172); HF+TT1, 10 mg/kg/day oral",significantly increased
same,expression level of p-AMPK/t-AMPK proteins in liver,"phospho-AMPK(Thr172); HF+TT2, 20 mg/kg/day oral",significantly increased
same,expression level of phospho-AMPK/total-AMPK in skeletal muscle,"phospho-AMPK(Thr172); HF+TT2, 20 mg/kg/day oral",significantly increased
same,expression level of p-AMPK/t-AMPK proteins in liver,"phospho-AMPK(Thr172); HF+TT3, 40 mg/kg/day oral",significantly increased
same,expression level of phospho-AMPK/total-AMPK in skeletal muscle,"phospho-AMPK(Thr172); HF+TT3, 40 mg/kg/day oral",significantly increased
same,PPARγ protein expression level in adipose tissue,"PPARγ; HF+TT1, 10 mg/kg/day oral",significantly decreased
same,PPARγ protein expression level in liver,"PPARγ; HF+TT1, 10 mg/kg/day oral",significantly decreased
same,PPARγ protein expression level in adipose tissue,"PPARγ; HF+TT2, 20 mg/kg/day oral",significantly decreased
same,PPARγ protein expression level in liver,"PPARγ; HF+TT2, 20 mg/kg/day oral",significantly decreased
same,PPARγ protein expression level in adipose tissue,"PPARγ; HF+TT3, 40 mg/kg/day oral",significantly decreased
same,PPARγ protein expression level in liver,"PPARγ; HF+TT3, 40 mg/kg/day oral",significantly decreased
same,SREBP-1c mRNA expression level in liver,"SREBP-1c; HF+TT1, 10 mg/kg/day oral",decreased
same,SREBP-1c mRNA expression level in liver,"SREBP-1c; HF+TT2, 20 mg/kg/day oral",decreased
same,SREBP-1c mRNA expression level in liver,"SREBP-1c; HF+TT3, 40 mg/kg/day oral",decreased
same,Adipocyte area,"[1]; HF+TT1, 10 mg/kg/day oral",6872.5 ± 160.8 μm^2
same,Adipocyte area,"[1]; HF+TT2, 20 mg/kg/day oral",6530.2 ± 148.2 μm^2
same,Adipocyte area,"[1]; HF+TT3, 40 mg/kg/day oral",5972.4 ± 279.5 μm^2
same,liver ballooning degeneration,[1]; pathohistological staining,reduce
same,CPT-1a mRNA expression level in liver,"CPT-1a; HF+TT1, 10 mg/kg/day oral",increased
same,CPT-1a mRNA expression level in liver,"CPT-1a; HF+TT2, 20 mg/kg/day oral",increased
same,CPT-1a mRNA expression level in liver,"CPT-1a; HF+TT3, 40 mg/kg/day oral",increased
same,SREBP-2 mRNA expression level in liver,"SREBP-2; HF+TT1, 10 mg/kg/day oral",decreased
same,SREBP-2 mRNA expression level in liver,"SREBP-2; HF+TT2, 20 mg/kg/day oral",decreased
same,SREBP-2 mRNA expression level in liver,"SREBP-2; HF+TT3, 40 mg/kg/day oral",decreased
same,Blood glucose,"[2]; HF+TT1, 10 mg/kg/day oral",90.44 mg/dL
same,Blood glucose,"[2]; HF+TT2, 20 mg/kg/day oral",82.89 mg/dL
same,Blood glucose,"[2]; HF+TT3, 40 mg/kg/day oral",77.78 mg/dL
same,Plasma FFA,"[2]; HF+TT1, 10 mg/kg/day oral",0.95 meq/L
same,Plasma FFA,"[2]; HF+TT2, 20 mg/kg/day oral",0.87 meq/L
same,Plasma FFA,"[2]; HF+TT3, 40 mg/kg/day oral",0.81 meq/L
same,Insulin,"[2]; HF+TT1, 10 mg/kg/day oral",2.982 µg/L
same,Leptin,"[2]; HF+TT1, 10 mg/kg/day oral",9.827 ng/mL
same,Insulin,"[2]; HF+TT2, 20 mg/kg/day oral",2.625 µg/L
same,Leptin,"[2]; HF+TT2, 20 mg/kg/day oral",8.468 ng/mL
same,Insulin,"[2]; HF+TT3, 40 mg/kg/day oral",2.190 µg/L
same,Leptin,"[2]; HF+TT3, 40 mg/kg/day oral",6.439 ng/mL
same,TC,"[2]; HF+TT1, 10 mg/kg/day oral",120.55 mg/dL
same,TG,"[2]; HF+TT1, 10 mg/kg/day oral",84.85 mg/dL
same,TC,"[2]; HF+TT2, 20 mg/kg/day oral",114.93 mg/dL
same,TG,"[2]; HF+TT2, 20 mg/kg/day oral",83.63 mg/dL
same,TC,"[2]; HF+TT3, 40 mg/kg/day oral",112.46 mg/dL
same,TG,"[2]; HF+TT3, 40 mg/kg/day oral",82.31 mg/dL
same,membrane expression level of GLUT4 in skeletal muscle,"membrane GLUT4; HF+TT1, 10 mg/kg/day oral",significantly increased
same,membrane expression level of GLUT4 in skeletal muscle,"membrane GLUT4; HF+TT2, 20 mg/kg/day oral",significantly increased
same,membrane expression level of GLUT4 in skeletal muscle,"membrane GLUT4; HF+TT3, 40 mg/kg/day oral",significantly increased
same,protein expression level of phospho-Akt(Ser473)/total-Akt(Ser473),[3],increase
same,PPAR protein expression level in liver,"PPARα; HF+TT1, 10 mg/kg/day oral",significantly increased
same,PPAR protein expression level in liver,"PPARα; HF+TT2, 20 mg/kg/day oral",significantly increased
same,PPAR protein expression level in liver,"PPARα; HF+TT3, 40 mg/kg/day oral",significantly increased
same,Liver lipids: Total lipid,"[4]; HF+TT1, 10 mg/kg/day oral",64.4 mg/g
same,Liver lipids: Triacylglycerol,"[4]; HF+TT1, 10 mg/kg/day oral",53 µmol/g
same,Liver lipids: Total lipid,"[4]; HF+TT2, 20 mg/kg/day oral",61.7 mg/g
same,Liver lipids: Triacylglycerol,"[4]; HF+TT2, 20 mg/kg/day oral",48 µmol/g
same,Liver lipids: Total lipid,"[4]; HF+TT3, 40 mg/kg/day oral",57.9 mg/g
same,Liver lipids: Triacylglycerol,"[4]; HF+TT3, 40 mg/kg/day oral",47.1 µmol/g
